# In ChEMBL document CHEMBL4419172, “Small molecule inhibitors of polynucleotide kinase/phosphatase, poly(ADP-ribose) polymerase and uses thereof” (2017):
# Calls of active or inactive are those of the source. The rule behind the calls is not given here. Starred links: 1 amine or outer side, 2 acyl side, 3 side chain; linkers in the order of their positions; H or OH if unused. Positions of bridges follow the written chain, without caps; N, C: chain ends. Non-standard residues stand in square brackets, D forms with d. Residues, ends and D or L forms follow the SMILES beside them. Adda = CO[C@@H](Cc1ccccc1)[C@@H](C)/C=C(C)/C=C/[C@H](N[*:1])[C@H](C)C(=O)[*:2]; dAsp(3S-Me) = C[C@H](C(=O)[*:3])[C@@H](N[*:1])C(=O)[*:2]; d(γGlu) = O=C(O)[C@@H](CCC(=O)[*:2])N[*:1]; NMeDha = C=C(NC)C(=O)O
# Legend:
# [1] = organism: Rattus norvegicus; test: Inhibition of rat delta-calcineurin expressed in Escherichia coli assessed as reduction in phosphatase activity by measuring release of inorganic phosphate using 5'-TAMRA-tagged 20-mer oligonucleotide as substrate incubated for 30 mins by fluorescence quenching based assay
# [2] = target: Aprataxin (Homo sapiens) (UniProt Q7Z2E3); test: Inhibition of human APTX assessed as reduction in phosphatase activity by measuring release of inorganic phosphate at 50 uM using 5'-TAMRA-tagged 20-mer oligonucleotide as substrate incubated for 30 mins by fluorescence quenching based assay
# [3] = test system: A549; test: Radiosensitizer activity in PNKP-depleted human A549 cells assessed as reduction in cell survival at 1 uM pre-incubated for 2 hrs prior to gamma irradiation and further incubated for 24 hrs and measured after 14 days by crystal violet staining based by clonogenic assay relative to control; format: functional
# [4] = target: Bifunctional polynucleotide phosphatase/kinase (Mus musculus) (UniProt Q9JLV6); test: Inhibition of mouse PNKP assessed as reduction in PNKP 3'-phosphatase activity by measuring release of inorganic phosphate at 5 to 50 uM using 5'-TAMRA-tagged 20-mer oligonucleotide as substrate incubated for 30 mins by fluorescence quenching based assay
# [5] = target: Serine/threonine-protein phosphatase PP1-gamma catalytic subunit (Homo sapiens) (UniProt P36873); test: Inhibition of human PP-1cgamma expressed in Escherichia coli assessed as reduction in phosphatase activity by measuring release of inorganic phosphate at 83.3 uM using 5'-TAMRA-tagged 20-mer oligonucleotide as substrate incubated for 30 mins by fluorescence quenching based assay
# [6] = test system: M059J; test: Antiproliferative activity against human M059J cells expressing non-functional DNA dependent protein kinase assessed as reduction in cell survival at 1 to 5 uM by MTS assay; format: cell-based
# [7] = test system: A549; test: Cytotoxicity against human A549 cells assessed as reduction in cell proliferation at 1 uM incubated for 72 hrs by cell-titer 96 aqueous non-radioactive cell proliferation assay; format: cell-based; settings: a549, 72 h
# [8] = test system: A549; test: Radiosensitizer activity in human A549 cells assessed as reduction in cell survival at 1 uM pre-incubated for 2 hrs prior to gamma irradiation and further incubated for 24 hrs and measured after 14 days by crystal violet staining based by clonogenic assay relative to control; format: functional
# [9] = Cytotoxicity against human A549 cells assessed as reduction in cell proliferation at 100 uM incubated for 72 hrs by cell-titer 96 aqueous non-radioactive cell proliferation assay; format: cell-based
# [10] = organism: Rattus norvegicus; test: Inhibition of rat delta-calcineurin expressed in Escherichia coli assessed as reduction in phosphatase activity by measuring release of inorganic phosphate at 83.3 uM using 5'-TAMRA-tagged 20-mer oligonucleotide as substrate incubated for 30 mins by fluorescence quenching based assay
# [11] = test system: A549; test: Antiproliferative activity against PNKP-depleted and DNA polymerase-beta dominant negative human A549 cells assessed as reduction in cell survival at 1 to 5 uM by MTS assay; format: functional, cell-based
# [12] = test system: MDA-MB-231; test: Cytotoxicity against human MDA-MB-231 cells assessed as reduction in cell proliferation at 1 uM incubated for 72 hrs by cell-titer 96 aqueous non-radioactive cell proliferation assay; format: cell-based; settings: mda-mb-231, 72 h
# [13] = Cytotoxicity against human A549 cells assessed as reduction in cell proliferation at >100 uM incubated for 72 hrs by cell-titer 96 aqueous non-radioactive cell proliferation assay; format: cell-based
# [14] = test system: MDA-MB-231; test: Radiosensitizer activity in PNKP-depleted human MDA-MB-231 cells assessed as reduction in cell survival at 1 uM pre-incubated for 2 hrs prior to gamma irradiation and further incubated for 24 hrs and measured after 14 days by crystal violet staining based by clonogenic assay relative to control; format: functional
# [15] = test system: A549; test: Chemosensitizer activity in human A549 cells assessed as reduction in cell survival at 1 uM pre-incubated for 2 hrs prior to camptothecin and further incubated for 24 hrs and measured after 10 to 14 days by crystal violet staining based by clonogenic assay relative to control; format: functional
# [16] = test system: MDA-MB-231; test: Radiosensitizer activity in human MDA-MB-231 cells assessed as reduction in cell survival at 1 uM pre-incubated for 2 hrs prior to gamma irradiation and further incubated for 24 hrs and measured after 14 days by crystal violet staining based by clonogenic assay relative to control; format: functional
# [17] = Cytotoxicity against human MDA-MB-231 cells assessed as reduction in cell proliferation at 100 uM incubated for 72 hrs by cell-titer 96 aqueous non-radioactive cell proliferation assay; format: cell-based
# [18] = Cytotoxicity against human MDA-MB-231 cells assessed as reduction in cell proliferation at >100 uM incubated for 72 hrs by cell-titer 96 aqueous non-radioactive cell proliferation assay; format: cell-based
# Chain of Serine/threonine-protein phosphatase PP1-gamma catalytic subunit (Homo sapiens) (P36873 2-323 limits assumed): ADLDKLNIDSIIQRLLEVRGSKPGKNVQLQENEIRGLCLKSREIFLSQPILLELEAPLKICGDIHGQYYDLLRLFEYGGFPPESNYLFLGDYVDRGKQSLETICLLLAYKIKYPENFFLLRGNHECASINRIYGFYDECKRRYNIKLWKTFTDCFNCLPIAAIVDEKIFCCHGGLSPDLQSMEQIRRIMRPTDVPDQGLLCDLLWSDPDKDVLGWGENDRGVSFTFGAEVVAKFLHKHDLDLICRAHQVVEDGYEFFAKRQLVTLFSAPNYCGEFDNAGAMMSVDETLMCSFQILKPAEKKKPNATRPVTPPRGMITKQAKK
# Chain of Aprataxin (Homo sapiens) (Q7Z2E3 whole entry): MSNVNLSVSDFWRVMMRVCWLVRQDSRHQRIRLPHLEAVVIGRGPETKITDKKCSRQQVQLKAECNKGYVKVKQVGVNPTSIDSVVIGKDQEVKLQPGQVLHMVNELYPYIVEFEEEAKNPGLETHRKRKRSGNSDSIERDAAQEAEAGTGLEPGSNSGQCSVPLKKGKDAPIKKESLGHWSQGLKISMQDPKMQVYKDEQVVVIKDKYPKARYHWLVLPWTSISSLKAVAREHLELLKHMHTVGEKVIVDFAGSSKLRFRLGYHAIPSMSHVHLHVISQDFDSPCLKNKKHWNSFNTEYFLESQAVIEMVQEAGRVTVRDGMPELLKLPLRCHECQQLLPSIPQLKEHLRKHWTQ
# Chain of Bifunctional polynucleotide phosphatase/kinase (Mus musculus) (Q9JLV6 whole entry): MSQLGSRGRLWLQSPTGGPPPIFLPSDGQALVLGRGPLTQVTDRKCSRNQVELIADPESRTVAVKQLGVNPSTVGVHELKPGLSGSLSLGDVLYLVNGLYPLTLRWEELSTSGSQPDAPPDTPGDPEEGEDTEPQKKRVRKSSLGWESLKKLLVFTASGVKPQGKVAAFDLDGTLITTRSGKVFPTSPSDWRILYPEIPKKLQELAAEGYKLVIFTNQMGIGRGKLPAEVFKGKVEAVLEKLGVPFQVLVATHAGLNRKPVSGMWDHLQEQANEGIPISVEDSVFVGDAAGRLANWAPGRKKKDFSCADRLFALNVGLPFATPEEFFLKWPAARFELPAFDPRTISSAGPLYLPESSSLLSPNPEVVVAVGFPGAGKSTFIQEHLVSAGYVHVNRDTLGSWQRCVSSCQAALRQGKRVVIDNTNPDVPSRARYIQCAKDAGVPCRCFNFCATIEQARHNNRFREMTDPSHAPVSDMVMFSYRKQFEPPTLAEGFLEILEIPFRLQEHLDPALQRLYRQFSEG
Compound,inhibition [1],inhibition [2],Activity [3],inhibition [4],inhibition [5],Activity [6],Activity [7],fold change (FC) [8],"inhibition at 72 h, 100 µM [9] [%]",inhibition [10],Activity [11],Activity [12],inhibition at 72 h [13] [%],Activity [14],Activity [15],Activity [16],"inhibition at 72 h, 100 µM [17] [%]",inhibition at 72 h [18] [%]
C=C1C(=O)N[C@H](C)C(=O)N[C@@H](CC(C)C)C(=O)N[C@@H](C(=O)O)[C@H](C)C(=O)N[C@@H](CCCNC(=N)N)C(=O)N[C@@H](/C=C/C(C)=C/[C@H](C)[C@H](Cc2ccccc2)OC)[C@H](C)C(=O)N[C@@H](C(=O)O)CCC(=O)N1C (R[Adda][d(γGlu)][NMeDha][dA]L[dAsp(3S-Me)]-OH; lactam N-7),Active,–,–,–,–,–,–,–,–,–,–,–,–,–,–,–,–,–
CCCCCCCCCCC(O)C1C=CC2C(=O)N(c3ccccc3)C(=O)C2N1Nc1ccc([N+](=O)[O-])cc1 (stereo not drawn),–,inactive,inactive,Active,inactive,inactive,Non-Toxic,2,≤ 50,inactive,Active,Non-Toxic,≤ 50,inactive,Active,Active,≤ 50,≤ 50
